Laboratory results reported in PubChem BioAssay AID330 (DTP/NCI, 2004).
“And” between values parts separate entries of the source, which are not always exact repeats. Equal entries are not always repeated. Toxic doses and inconclusive results are not listed.

Tested on: P388 leukemia ip, CD2F1 mice, survival T/C
Test: NCI In Vivo Anticancer Drug Screen. Data for tumor model P388 Leukemia (intraperitoneal) in CD2F1 (CDF1) mice
Settings: endpoint: median survival time, higher = longer survival
Summary of the method: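 Mice carrying the transplanted tumor received test compound or vehicle. Survival was recorded in each group, and the value is the treated-group measurement divided by that of the vehicle-treated control group.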

[1] = dose: 12.5 mg/kg/injection, schedule: Q01DX009 (ip), vehicle: saline
[2] = dose: 25.0 mg/kg/injection, schedule: Q01DX009 (ip), vehicle: saline
[3] = dose: 50.0 mg/kg/injection, schedule: Q01DX005 (ip), vehicle: saline
[4] = dose: 100.0 mg/kg/injection, schedule: Q01DX005 (ip), vehicle: saline
[5] = dose: 60.0 mg/kg/injection, schedule: Q01DX005 (ip), vehicle: Klucel (hydroxypropylcellulose) (HPC)
[6] = dose: 120.0 mg/kg/injection, schedule: Q01DX005 (ip), vehicle: Klucel (hydroxypropylcellulose) (HPC)
[7] = dose: 50.0 mg/kg/injection, schedule: Q01DX005 (ip), vehicle: Klucel (hydroxypropylcellulose) (HPC)
[8] = dose: 100.0 mg/kg/injection, schedule: Q01DX005 (ip), vehicle: Klucel (hydroxypropylcellulose) (HPC)
[9] = dose: 200.0 mg/kg/injection, schedule: Q01DX005 (ip), vehicle: Klucel (hydroxypropylcellulose) (HPC)
[10] = dose: 25.0 mg/kg/injection, schedule: Q01DX005 (ip), vehicle: saline
[11] = dose: 50.0 mg/kg/injection, schedule: Q01DX009 (ip), vehicle: saline with Tween-80
[12] = dose: 100.0 mg/kg/injection, schedule: Q01DX009 (ip), vehicle: saline with Tween-80
[13] = dose: 50.0 mg/kg/injection, schedule: Q01DX009 (ip), vehicle: saline
[14] = dose: 100.0 mg/kg/injection, schedule: Q01DX009 (ip), vehicle: saline
[15] = dose: 200.0 mg/kg/injection, schedule: Q01DX009 (ip), vehicle: saline
[16] = dose: 100.0 mg/kg/injection, schedule: Q01DX009 (ip), vehicle: Klucel (hydroxypropylcellulose) (HPC)
[17] = dose: 200.0 mg/kg/injection, schedule: Q01DX009 (ip), vehicle: Klucel (hydroxypropylcellulose) (HPC)
[18] = dose: 50.0 mg/kg/injection, schedule: Q04DX003 (ip), vehicle: saline with Tween-80

Nc1cccc(N)n1
T/C (dose: 3.12 mg/kg/injection, schedule: Q01DX009 (ip), vehicle: saline): 102 % of control | T/C (dose: 6.25 mg/kg/injection, schedule: Q01DX009 (ip), vehicle: saline): 101 % of control (2×) and 103 % of control | T/C [1]: 100 % of control and 109 % of control and 114 % of control | T/C [2]: 112 % of control and 124 % of control

Cc1nn(C(=O)c2ccncc2)c(C)c1N=Nc1ccccc1Cl
T/C (dose: 100.0 mg/kg/injection, schedule: Q04DX003 (ip), vehicle: Klucel (hydroxypropylcellulose) (HPC)): 96 % of control | T/C (dose: 200.0 mg/kg/injection, schedule: Q04DX003 (ip), vehicle: Klucel (hydroxypropylcellulose) (HPC)): 95 % of control | T/C (dose: 400.0 mg/kg/injection, schedule: Q04DX003 (ip), vehicle: Klucel (hydroxypropylcellulose) (HPC)): 97 % of control

CNP1(NC)=NP(N(C)C)(N(C)C)=NP(N(C)C)(N(C)C)=N1
T/C [3]: 102 % of control | T/C [4]: 112 % of control | T/C (dose: 200.0 mg/kg/injection, schedule: Q01DX005 (ip), vehicle: saline): 104 % of control

CC(=O)/C=C1/NC=CN(C(=O)c2ccccc2)C1c1ccccc1 (stereo not given)
T/C [5]: 94 % of control | T/C [6]: 92 % of control | T/C (dose: 240.0 mg/kg/injection, schedule: Q01DX005 (ip), vehicle: Klucel (hydroxypropylcellulose) (HPC)): 87 % of control

O=S1(c2ccccc2)=NP(N2CC2)(N2CC2)=NP(N2CC2)(N2CC2)=N1 (stereo not given)
T/C (dose: 18.75 mg/kg/injection, schedule: Q04DX003 (ip), vehicle: saline): 99 % of control | T/C (dose: 37.5 mg/kg/injection, schedule: Q04DX003 (ip), vehicle: saline): 93 % of control | T/C (dose: 75.0 mg/kg/injection, schedule: Q04DX003 (ip), vehicle: saline): 120 % of control

NC(CCC(=O)NC(CSC(c1ccccc1)(c1ccccc1)c1ccccc1)C(=O)NCC(=O)O)C(=O)O (stereo not given)
T/C [5]: 101 % of control and 115 % of control | T/C [6]: 101 % of control and 113 % of control

Oc1ccccc1C=Nc1c(Cl)cc(Cl)cc1Cl
T/C [7]: 105 % of control | T/C [8]: 109 % of control | T/C [9]: 107 % of control

COc1cccc(C(=O)NC(=O)NC(=O)c2ccccc2)c1
T/C (dose: 100.0 mg/kg/injection, schedule: Q04DX002 (ip), vehicle: saline with Tween-80): 100 % of control | T/C (dose: 200.0 mg/kg/injection, schedule: Q04DX002 (ip), vehicle: saline with Tween-80): 93 % of control | T/C (dose: 400.0 mg/kg/injection, schedule: Q04DX002 (ip), vehicle: saline with Tween-80): 93 % of control

CCC1(c2cccc(C=O)c2)CCCCN(C)C1 (stereo not given)
T/C (dose: 12.5 mg/kg/injection, schedule: Q01DX005 (ip), vehicle: saline): 99 % of control | T/C [10]: 97 % of control | T/C [3]: 97 % of control

CN1CCC(c2ccccc2)C(OC(=O)c2ccccc2)C1 (stereo not given)
T/C [10]: 110 % of control | T/C [3]: 111 % of control | T/C [4]: 100 % of control

Cn1c(=O)c2c(CCCC(=O)O)onc2n(C)c1=O
T/C (dose: 25.0 mg/kg/injection, schedule: Q01DX009 (ip), vehicle: saline with Tween-80): 96 % of control | T/C [11]: 93 % of control | T/C [12]: 90 % of control

O=C(CO)N(O)c1ccc(Cl)cc1
T/C (dose: 50.0 mg/kg/injection, schedule: Q01DX009 (ip), vehicle: water): 109 % of control | T/C (dose: 100.0 mg/kg/injection, schedule: Q01DX009 (ip), vehicle: water): 101 % of control

CC1NC(=O)NC(=O)C1(Cl)Cl (stereo not given)
T/C [13]: 101 % of control | T/C [14]: 99 % of control and 109 % of control | T/C [15]: 100 % of control and 109 % of control

CN=C(C)Nc1ccccc1OC
T/C [1]: 111 % of control | T/C [2]: 114 % of control | T/C [13]: 113 % of control and 97 % of control

C[C@H]1C(=O)O[C@@H]2CCN3CC=C(COC(=O)[C@](C)(O)[C@@]1(C)O)[C@H]23
T/C (dose: 3.13 mg/kg/injection, schedule: Q01DX010 (ip), vehicle: saline): 95 % of control | T/C (dose: 6.25 mg/kg/injection, schedule: Q01DX010 (ip), vehicle: saline): 100 % of control | T/C (dose: 12.5 mg/kg/injection, schedule: Q01DX010 (ip), vehicle: saline): 104 % of control | T/C (dose: 25.0 mg/kg/injection, schedule: Q01DX010 (ip), vehicle: saline): 100 % of control

NC(CSCC(=O)O)C(=O)O (stereo not given)
T/C (dose: 25.0 mg/kg/injection, schedule: Q01DX009 (ip), vehicle: Klucel (hydroxypropylcellulose) (HPC)): 95 % of control | T/C (dose: 50.0 mg/kg/injection, schedule: Q01DX009 (ip), vehicle: Klucel (hydroxypropylcellulose) (HPC)): 111 % of control | T/C [16]: 105 % of control | T/C [17]: 98 % of control

O=C1c2cccc([N+](=O)[O-])c2C(=O)C1c1ccccn1 (stereo not given)
T/C [11]: 99 % of control | T/C [12]: 87 % of control | T/C (dose: 200.0 mg/kg/injection, schedule: Q01DX009 (ip), vehicle: saline with Tween-80): 96 % of control | T/C (dose: 400.0 mg/kg/injection, schedule: Q01DX009 (ip), vehicle: saline with Tween-80): 97 % of control

O=C(Nc1cccc2ccccc12)OCC1CC1
T/C [18]: 98 % of control | T/C (dose: 100.0 mg/kg/injection, schedule: Q04DX003 (ip), vehicle: saline with Tween-80): 102 % of control | T/C (dose: 200.0 mg/kg/injection, schedule: Q04DX003 (ip), vehicle: saline with Tween-80): 100 % of control | T/C (dose: 400.0 mg/kg/injection, schedule: Q04DX003 (ip), vehicle: saline with Tween-80): 100 % of control

CC1(C)c2ccccc2-c2nc3ccccc3cc2C1O (stereo not given)
T/C (dose: 25.0 mg/kg/injection, schedule: Q01DX001 (ip), vehicle: saline): 96 % of control | T/C (dose: 50.0 mg/kg/injection, schedule: Q01DX001 (ip), vehicle: saline): 103 % of control | T/C (dose: 100.0 mg/kg/injection, schedule: Q01DX001 (ip), vehicle: saline): 101 % of control | T/C (dose: 200.0 mg/kg/injection, schedule: Q01DX001 (ip), vehicle: saline): 103 % of control

Cc1ccc(S(=O)(=O)CC(=O)c2ccccc2)cc1
T/C [16]: 108 % of control | T/C [17]: 108 % of control | T/C (dose: 400.0 mg/kg/injection, schedule: Q01DX009 (ip), vehicle: Klucel (hydroxypropylcellulose) (HPC)): 104 % of control

CCCCOC(=O)C(c1ccccc1)C1(C)Sc2ccccc2NC1=O (stereo not given)
T/C (dose: 12.5 mg/kg/injection, schedule: Q01DX001 (ip), vehicle: saline with Tween-80): 95 % of control | T/C (dose: 25.0 mg/kg/injection, schedule: Q01DX001 (ip), vehicle: saline with Tween-80): 96 % of control | T/C (dose: 50.0 mg/kg/injection, schedule: Q01DX001 (ip), vehicle: saline with Tween-80): 98 % of control

O=C(O)C(=O)O.O=C(O)C(=O)O.O=C(O)C(=O)O.[Ir]
T/C (dose: 12.5 mg/kg/injection, schedule: Q04DX003 (ip), vehicle: water): 120 % of control | T/C (dose: 25.0 mg/kg/injection, schedule: Q04DX003 (ip), vehicle: water): 120 % of control | T/C (dose: 50.0 mg/kg/injection, schedule: Q04DX003 (ip), vehicle: water): 93 % of control | T/C (dose: 100.0 mg/kg/injection, schedule: Q04DX003 (ip), vehicle: water): 98 % of control

CN(C)CCC#N
T/C [13]: 117 % of control | T/C [14]: 105 % of control | T/C [15]: 100 % of control

CCN1C(=O)C(=C2C=C(c3ccccc3)C(C#N)(c3ccccc3)C(c3ccccc3)=C2)C(=O)N(CC)C1=S (stereo not given)
T/C [7]: 99 % of control | T/C [8]: 97 % of control | T/C [9]: 98 % of control

CC1=C(C2CO2)C(=O)C(C)=C(C2CO2)C1=O (stereo not given)
T/C (dose: 1.56 mg/kg/injection, schedule: Q04DX002 (ip), vehicle: Klucel (hydroxypropylcellulose) (HPC)): 95 % of control | T/C (dose: 3.12 mg/kg/injection, schedule: Q04DX002 (ip), vehicle: Klucel (hydroxypropylcellulose) (HPC)): 93 % of control | T/C (dose: 6.25 mg/kg/injection, schedule: Q04DX002 (ip), vehicle: Klucel (hydroxypropylcellulose) (HPC)): 88 % of control | T/C (dose: 12.5 mg/kg/injection, schedule: Q04DX002 (ip), vehicle: Klucel (hydroxypropylcellulose) (HPC)): 89 % of control

O=C(CCN1CC1)OCCOC(=O)CCN1CC1
T/C (dose: 25.0 mg/kg/injection, schedule: Q04DX003 (ip), vehicle: saline): 159 % of control | T/C [18]: 150 % of control | T/C (dose: 50.0 mg/kg/injection, schedule: Q04DX003 (ip), vehicle: saline): 181 % of control | T/C (dose: 75.0 mg/kg/injection, schedule: Q04DX003 (ip), vehicle: saline with Tween-80): 166 % of control
